From patent US20240425857A1, “Means and Methods for Chronic Wound Healing” (VIB VZW, priority 2021, published 2024) come the findings set out here.

One series concerns C57BL/6J mice. The series can be described thus: Full-thickness skin wounding (8-mm punch biopsy), wound healing in wild-type mice. It counts as in vivo, mouse. From the text: (§1) Skin wounding and erastin regimen. Full-thickness wounds were made as previously described^65.56 Briefly, wounds were made on shaved back skin by using 8-mm punch biopsy needles (Stiefel Instruments) under analgesia and general anesthesia in 8-week-old female C57BL/6J, B6.BKS (D)-Leprdb/J (db/db), GDF15KO, Slc7a11KO and control littermates. For wound healing experiments, assuming standard deviations of 10-15%, an experimental group of n=10 is needed to obtain statistical power of 90% (significance level 0.05) and detect a difference between means of 20%, using two-tailed paired T-testing. No animals were excluded from any experiment.
For topical applications, mice were intradermally injected with Imidazole ketone erastin (IKE at 20 mg kg^−1 in 100 μl PBS; MedChemExpress, #HY-114481) or recombinant human GDF-15 (0.7 mg kg^−1 in 100 μl PBS; R&D Systems, #9279-GD-050) or RSL3 (20 mg kg-1 in 100 μl PBS; Sellechem, #S8155) or the respective vehicle controls (DMSO or 4 mM HCl in 100 μl PBS) at the time of wounding and for two consecutive days. For the experiments indicated as ‘erastin regimen’ or vehicle regimen, 5 million apoptotic Jurkat cells were administrated once on day 0 in 50 μl PBS on top of back skin immediately after full-thickness excision biopsy. […]

Another series has as its system db/db mice. The series is described as follows: Full-thickness skin wounding, wound healing in diabetic db/db mice. In kind it is in vivo, mouse. The following applies: no apoptotic cell co-administration.
Text: as §1
For topical applications, mice were intradermally injected with Imidazole ketone erastin (IKE at 20 mg kg^−1 in 100 μl PBS; MedChemExpress, #HY-114481) or recombinant human GDF-15 (0.7 mg kg^−1 in 100 μl PBS; R&D Systems, #9279-GD-050) or RSL3 (20 mg kg-1 in 100 μl PBS; Sellechem, #S8155) or the respective vehicle controls (DMSO or 4 mM HCl in 100 μl PBS) at the time of wounding and for two consecutive days. For the experiments indicated as ‘erastin regimen’ or vehicle regimen, 5 million apoptotic Jurkat cells were administrated once on day 0 in 50 μl PBS on top of back skin immediately after full-thickness excision biopsy. For the mice injected intradermally with supernatants from efferocytic dendritic cells, supernatants from dendritic cells cultured with apoptotic Jurkat cells for 16 h were collected, centrifuged to eliminate debris and frozen or lyophilized for preservation.

The next series deals with dendritic cells (BMDC). The series can be described thus: Efferocytosis assay: dendritic cells incubated with apoptotic Jurkat cells (flow cytometry or Incucyte live-cell imaging). In kind it is cell-based, mouse. The following applies: apoptotic Jurkat targets; for erastin-dependent increase in efferocytosis by dendritic cells: inhibitor given together with 5 μM erastin; for efferocytosis (apoptotic cell uptake) by dendritic cells: 1:5 phagocyte:target ratio, cells pretreated 1 hour with the substance. Here is the method: (§2) Efferocytosis assays. For induction of apoptosis, human Jurkat T cells were with stained with CypHerSE (#PA15401, GE Healthcare) or TAMRA (#C-1171, Invitrogen) or pHrodo™ Green STP Ester (#P35369, ThermoFisher), resuspended in RPMI with 5% fetal calf serum, treated with 150 mJ/cm^2 ultraviolet C irradiation (Stratalinker) and incubated for 4 h at 37° C. with 5% CO2. Dendritic cells were incubated with apoptotic targets at a 1:5 phagocyte: target ratio for the indicated times. Phagocytosis was assessed by a flow cytometry-based assay^21 or by Incucyte Live-cell imaging. As alternative targets for phagocytosis, dendritic cells were incubated with pHrodo™ Green E. coli BioParticles™ (#P35366, ThermoFisher) or Streptavidin Fluoresbrite® YG Microspheres, 2.0 μm (for simplicity, beads) at a 1:5 phagocyte: target ratio for the indicated times. When applicable, cells were pretreated for 1 hour with 5 μM erastin (#S7242, Bio-Connect B.V), 200 μM CP-91149 (#S2717, Bio-Connect B.V.), 0.2 mM 2-DG (2-Deoxy-D-glucose; #D8375-1G, Sigma), 5 μM UK5099 (#PZ0160, Sigma), 40 μM DON (6-Diazo-5-oxo-L-norleucine; #D2141-5 MG, Sigma), 10 μM 3-BP (3-Bromo-2-oxopropionic acid, #376817-M, Sigma), 10 mM Glutamate (#6106 Apr. 3, Sigma) before addition of targets.

Series [1] deals with dendritic cells. The series can be described thus: Determination of glycogen concentration in dendritic cells. It counts as cell-based, mouse. The following applies: CP-91149 added to erastin-treated BMDC. Here is the method:
Determination of glycogen concentration. The glycogen concentration was measured using a Glycogen Colorimetric/Fluorometric Assay Kit (#GENT-K646-10, BioVision) according to the manufacturer's instructions.

The test system of series [2] is dendritic cells. In kind it is cell-based, mouse. The source says:
FIG. 6D, Assessment of erastin drug cytotoxicity in dendritic cells by measuring Sytox Green fluorescence.
FIG. 9B, Assessment of cytotoxicity of drugs tested on dendritic cells by measuring Sytox Green fluorescence.

Series [3] deals with Slc7a11-deficient dendritic cells. The series can be described thus: Efferocytosis by Slc7a11-deficient (Slc7a11 KO) dendritic cells. In kind it is cell-based, mouse. The following applies: Slc7a11 KO BMDC, apoptotic Jurkat targets. Here is the method:
as §2

Entries after “also recorded” stand apart in the source; their conditions may differ.

On to `CC(C)Oc1ccc(C(=O)Cn2ccnc2)cc1-n1c(CN2CCN(C(=O)COc3ccc(Cl)cc3)CC2)nc2ccccc2c1=O` [IKE, Imidazole ketone erastin], for which the “wound healing, substance alone” value in the series on C57BL/6J mice (full-thickness wound, no co-treatment) is “did not improve wound healing”. Also, the “diabetic wound healing, substance alone” value with db/db mice is recorded as “improves skin wound healing in diabetic mice”. Consider `O=C(O)C(=O)CBr` [3-BP, 3-Bromo-2-oxopropionic acid], for which the “erastin-dependent increase in efferocytosis by dendritic cells” value (shortened to “erastin-dependent increase”) with dendritic cells (BMDC) is “dampened the enhanced inhibition due to erastin treatment”.

`CN(C)C(=O)[C@H](O)[C@H](Cc1ccccc1)NC(=O)c1cc2cc(Cl)ccc2[nH]1` [CP-91149]: the “erastin-dependent increase” value in the series with dendritic cells (BMDC) was “strongly abrogated the erastin-dependent increase in efferocytosis”. In the series on dendritic cells [1], the “glycogen levels in erastin-treated BMDC” value is given as “reversed the glycogen levels in erastin-treated BMDC almost to DMSO control”. Consider `[N-]=[N+]=CC(=O)CC[C@H](N)C(=O)O` [DON, 6-Diazo-5-oxo-L-norleucine], for which, in the series on dendritic cells (BMDC), the “erastin-dependent increase” value is on record as “marginally decreased the erastin-mediated augmented efferocytosis”. As to `CCOc1ccccc1-n1c(C(C)N2CCN(C(=O)COc3ccc(Cl)cc3)CC2)nc2ccccc2c1=O` (stereo not drawn) [erastin], in the series with dendritic cells [2], the dendritic cell viability result is given as “did not affect dendritic cell viability”. In the case of `C=C1[C@@H](C)[C@H]2[C@H](Cc3ccccc3)NC(=O)[C@]23[C@H](OC(C)=O)/C=C/[C@@](C)(O)C(=O)[C@@H](C)C/C=C/[C@H]3[C@@H]1O` [cytochalasin D], in series [3], the “efferocytosis by Slc7a11-deficient dendritic cells” value is given as “abrogated”. In the case of `N[C@@H](CCC(=O)O)C(=O)O` [glutamate], the “efferocytosis (apoptotic cell uptake) by dendritic cells” value in the series with dendritic cells (BMDC) is on record as “boosted efferocytosis”. Still for that read-out and setting: for `COc1ccc(N(C(=O)CCl)C(C(=O)NCCc2ccccc2)c2cccs2)cc1Cl` (stereo not drawn) [ML-162] the value was “did not enhance efferocytosis; also recorded: does not enhance efferocytosis by dendritic cells”. As for `O=CC[C@@H](O)[C@H](O)[C@H](O)CO` [2-DG, 2-Deoxy-D-glucose], the “erastin-dependent increase” value in the series on dendritic cells (BMDC) is reported as “abrogated the enhanced efferocytosis due to Slc7a11 inhibition”. Regarding `COC(=O)c1ccc([C@@H]2c3[nH]c4ccccc4c3C[C@@H](C(=O)OC)N2C(=O)CCl)cc1` [RSL3], the “wound healing, given with apoptotic cells at day 0” value in the series with C57BL/6J mice (apoptotic Jurkat cells once on day 0, drug from day 0 to day 2) is on record as “did not improve wound healing”. Turning to `N#C/C(=C\c1cn(-c2ccccc2)c2ccccc12)C(=O)O` [UK5099], the “erastin-dependent increase” value with dendritic cells (BMDC) was “had no impact on efferocytosis”.

B1: rGDF15: recombinant human GDF-15 (R&D Systems), member of the TGF-β superfamily (protein, UniProt Q99988 195-308, looked up)
Growth/differentiation factor …: ARARNGDHCPLGPGRCCRLHTVRASLEDLGWADWVLSPREVQVTMCIGACPSQFRAANMHAQIKTSLHRLKPDTVPAPCCVPASYNPMVLIQKTDTGVSLQTYDDLLAKDCHCI
Regarding B1, the “diabetic wound healing, substance alone” value in the series on db/db mice is reported as “significantly improved wound healing in the db/db mice”; in the series on db/db mice (listed as recombinant GDF15), “boosts healing”.
